The test system of test [1] is FITC-labelled H. pylori on AGS cells. The experiment in a line: Flow cytometric anti-adhesion assay of FITC-labelled H. pylori on AGS cells. The settings on record: for reduction of adhesion: fragments of S3. For orientation: A flow cytometer gives signals particle by particle.
Procedure: H. pylori was incubated for 48 h under microaerophilic conditions at 37° C. on Tryptic Soy Agar (Becton Dickinson, Germany), supplemented with 5% defibrinated sheep blood (Oxoid, UK).
Human gastric epithelial cells (AGS cells) were grown in RPMI 1640 with L-glutamine (PAA, Germany), supplemented with 10% FCS, on tissue culture flasks (75 cm^2, Sarstedt, USA) and 6-well-plates (Sarstedt, USA) in 5% CO2.
Agar grown H. pylori were harvested and resuspended in sterile carbonate buffer (pH 9.0) to a density of about 1.0×10^8 bacteria per ml. 10 μl of a FITC solution (1% in DMSO) were added and incubated with the bacteria for 45 min. Fluorescent labelling was terminated by pelleting the bacteria (3.150×g, 5 min). Bacteria were washed twice in PBS to remove excess FITC and were gently resuspended for further use.
For test [2], the system named is FITC-labelled H. pylori on human gastric mucosa. In words: In situ adhesion assay on histological sections of human gastric mucosa. The test is classed as cell-based. The settings on record: 300 μM. The protocol: In situ experiments with histological sections of human gastric mucosa and FITC-labelled H. pylori were performed according to Lengsfeld et al, 2004, J. Agricul. Food Chem: 52, 1495-1503, and evaluated by fluorescent microscopy. The adhesion of FITC-labelled H. pylori to the epithelium was assessed by fluorescent microscopy and imaging. The quantity of adhering bacteria to the epithelial surface was evaluated under double blinded conditions. Maximal adhesion was expressed as total 100% adhesion. The fluorescence area intensity was calculated by ImageJ® software (Olympus, Germany), standardizing the fluorescent area of the negative control as 100%.

The subject of another test is OMP BabA. In words: Dot blot glycoconjugate assay, BabA ligands (Lewis b, H type I). The class given is binding. The following applies: pre-treatment of H. pylori.
The subject of test [3] is H. pylori outer membrane proteins (OMP). In words: Dot blot glycoconjugate assay, adhesins in general. The test is classed as binding. The following applies: pre-treatment of H. pylori.
Setting [4] is: 75 μM, untreated control = 100%.
Setting [5] is: 150 μM, untreated control = 100%.

Values joined by “and” are separate entries in the source; they are usually repeats but may differ in a detail not shown here. Identical values can stand only once. Where no end group is shown, it is not given here.

With `CC(=O)N[C@H]1[C@H]([C@H](O)[C@H](O)CO)O[C@@](O[C@H]2[C@@H](O)[C@@H](CO)O[C@@H](O[C@H]3[C@H](O)[C@@H](O)C(O)O[C@@H]3CO)[C@@H]2O)(C(=O)O)C[C@@H]1O` (stereo partly shown) [positive control, 3′sialyllactose, reference compound], the “rel. adhesion in [%] (±SEM; n = 3)” value in test [1] (positive control 3′sialyllactose 15 mM) came out at 70 ± 5%.

With AFNVNR [S3B], the “rel. adhesion in [%] (±SEM; n = 3)” value in test [1] (setting [4]) worked out at 97 ± 4%; in test [1] (setting [5]), 104 ± 1%.

Consider Asp-Ala-Phe [S3H], for which the “antiadhesive activity against H. pylori (in words)” value (shortened to “antiadhesive activity”) in test [1] was “inactive”. Also, the “rel. adhesion in [%] (±SEM; n = 3)” value came out at 104 ± 6% in test [1] (setting [4]) and 105 ± 1% in test [1] (setting [5]).

On to Asp-Phe-Leu-Glu-Asp (DFLED) [S3A], for which the “rel. adhesion in [%] (±SEM; n = 3)” value in test [1] (setting [4]) is given as 102 ± 3%; in test [1] (setting [5]), 108 ± 6%.

Consider DAFNVNR [S3D], for which the entries for the “rel. adhesion in [%] (±SEM; n = 3)” value in test [1] (setting [4]) and in test [1] (setting [5]) were 89 ± 4% and 89 ± 3%, respectively. Moreover, in test [1], the reduction of adhesion result is “about 10%”.

On to DFLEDAF [S3F], for which the results for the “rel. adhesion in [%] (±SEM; n = 3)” value in test [1] (setting [4]) and in test [1] (setting [5]) were 85 ± 3% and 90 ± 5%, respectively. Besides, the reduction of adhesion result in test [1] was “about 10%”.

As for DFLEDAFNV [S3E], the “rel. adhesion in [%] (±SEM; n = 3)” value in test [1] (setting [4]) and in test [1] (setting [5]) was 91 ± 4% in each case. For the same compound, the reduction of adhesion entry in test [1] was “about 10%”.

With DFLEDAFNVNR [S3], the “inhibition of adhesion in situ” value in test [2] is on record as “about 40%”. Further, in the test on OMP BabA, the “bacterial interaction with Lewis b-HSA conjugate” value is “inhibition”. The “influence on other adhesins (other than BabA / Lewis b-HSA)” value in test [3] is recorded as “not significantly influenced”. The “antiadhesive activity” value in test [1] is on record as “inhibit adhesion”. The “rel. adhesion in [%] (±SEM; n = 3)” value in test [1] (setting [4]) was 81% and 81 ± 3%; in test [1] (setting [5]) it was 83% and 83 ± 6%.

For ELAFPGSAQEVDR [S5], in the test with OMP BabA, the “bacterial interaction with Lewis b-HSA conjugate” value is recorded as “inhibition”. Further, in test [3], the “influence on other adhesins (other than BabA / Lewis b-HSA)” value is given as “not significantly influenced”. In test [1], the “antiadhesive activity” value is on record as “inhibit adhesion”. Also, the “rel. adhesion in [%] (±SEM; n = 3)” value in test [1] (setting [4]) is listed as 94 ± 2%; in test [1] (setting [5]), 85 ± 2%. Besides, the inhibition of adhesion was 6% in test [1] (75 μmol) and 17% in test [1] (150 μmol).

For GDFELVGQR [S6], the “rel. adhesion in [%] (±SEM; n = 3)” value in test [1] (setting [4]) is 94 ± 3%; in test [1] (setting [5]), 97 ± 2%.

For the compound LDALEPDNRIESEGGLIETWNPNNK [S1], the “rel. adhesion in [%] (±SEM; n = 3)” value in test [1] (setting [4]) turned out to be 95 ± 10%; in test [1] (setting [5]) it was 104 ± 7%.

For the compound LEDAFNV [S3G], the “rel. adhesion in [%] (±SEM; n = 3)” value in test [1] (setting [4]) was 93 ± 2%; in test [1] (setting [5]), 94 ± 3%. Further, the reduction of adhesion result in test [1] is on record as “about 10%”.

As to LEDAFNVNR [S3C], the results for the “rel. adhesion in [%] (±SEM; n = 3)” value in test [1] (setting [4]) and in test [1] (setting [5]) were 95 ± 5% and 100 ± 4%, respectively.

As to LNIGPSSSPDIYNPEAGR [S2], the figures for the “rel. adhesion in [%] (±SEM; n = 3)” value in test [1] (setting [4]) and in test [1] (setting [5]) were 93 ± 8% and 94 ± 6%, respectively.

For WEREEDEEQVDEEWR [S4], the “rel. adhesion in [%] (±SEM; n = 3)” value turned out to be 98 ± 2% in test [1] (setting [4]) and 107 ± 2% in test [1] (setting [5]).
